The results in this text go back to ChEMBL document CHEMBL1201862, “PubChem BioAssay data set” (2004).

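48-hour exposure; five concentrations; linearly interpolated endpoints. GI50 is the concentration that inhibits growth by half.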 Activity calls are given as the source filed them. No stated cut-off is given here; in the data, active = GI50 up to about 1.1 µM and inactive = higher.

Test systems include NCI-H522; NCI-H23; SK-MEL-5; TK-10; UACC-257; DMS-114; SK-OV-3; U-251; NCI-H460; SK-MEL-2; A549; SW-620; COLO 205; MOLT-4; HCT-116; RPMI-8226; T47D; DU-145; PC-3; MDA-MB-435.
Holding throughout (experiment): NCI tumour cell line growth inhibition, 48 h

Regarding `O=C1c2cccc3cc([N+](=O)[O-])cc(c23)C(=O)N1NC1=NCCN1`, the GI50 with NCI-H522, with NCI-H23, in the assay on SK-MEL-5, with TK-10, with UACC-257 and in the assay on DMS-114 was > 100 µM (inactive) in each case. In addition, the GI50 in the assay on SK-OV-3, with U-251, with NCI-H460, with SK-MEL-2, in the assay on A549 and in the assay on SW-620 was > 100 µM (inactive) in each case. Further, the GI50 in the assay on COLO 205, in the assay with MOLT-4, with HCT-116 and in the assay on RPMI-8226 was > 100 µM (inactive) each time.
In the case of `Cc1cc(Cl)ccc1NC(=O)CC1SC(N)=NC1=O` (centres undefined), the GI50 with NCI-H522, in the assay on NCI-H23, in the assay on SK-MEL-5, with TK-10, in the assay on UACC-257 and in the assay on DMS-114 was > 100 µM (inactive) throughout. Moreover, the GI50 with SK-OV-3, with U-251, with NCI-H460, with SK-MEL-2, in the assay with A549 and with SW-620 was > 100 µM (inactive) throughout. Besides, the GI50 in the assay with COLO 205, in the assay on MOLT-4 and in the assay with RPMI-8226 was > 100 µM (inactive) each time.
Turning to `O=C1c2ccccc2C(=O)c2sc(Nc3ccc(Cl)c(Cl)c3)nc21`, the GI50 was 2.07 µM (inactive) in the assay with NCI-H522; 2.31 µM (inactive) with NCI-H23; 2.32 µM (inactive) in the assay on SK-MEL-5; 11.1 µM (inactive) in the assay with TK-10; 4.01 µM (inactive) with UACC-257; 4.03 µM (inactive) with T47D. The GI50 with DMS-114 was 1.67 µM (inactive); with SK-OV-3, 18 µM (inactive); in the assay with U-251, 2.43 µM (inactive); in the assay on NCI-H460 it was 12.5 µM (inactive); with SK-MEL-2 it was 8.26 µM (inactive); with DU-145 it was 18.8 µM (inactive). In addition, the GI50 in the assay with A549 is 23.5 µM (inactive); in the assay with SW-620, 1.61 µM (inactive); in the assay with COLO 205, 8 µM (inactive); in the assay with MOLT-4, 1.02 µM (active); in the assay on HCT-116, 3 µM (inactive); in the assay with RPMI-8226, 2.02 µM (inactive).
As for `O=C1[C@@H](c2ccc(Cl)cc2)[C@H]2CC=C[C@H]2N1O`, the GI50 was 71.1 µM (inactive) with NCI-H522; > 100 µM (inactive) in the assay with NCI-H23; > 100 µM (inactive) in the assay on SK-MEL-5; > 100 µM (inactive) in the assay with TK-10; > 100 µM (inactive) in the assay with UACC-257; 41.5 µM (inactive) in the assay on DMS-114. In addition, the GI50 was > 100 µM (inactive) in the assay with SK-OV-3; > 100 µM (inactive) in the assay with SK-MEL-2; > 100 µM (inactive) in the assay on A549; > 100 µM (inactive) in the assay on SW-620; > 100 µM (inactive) with COLO 205; 66.1 µM (inactive) with MOLT-4. In addition, the GI50 in the assay on RPMI-8226 was > 100 µM (inactive).
For `CCc1cccc(C)c1NC(=O)NS(=O)(=O)c1ccc(C)cc1`, the GI50 in the assay with NCI-H522, in the assay on NCI-H23, in the assay with SK-MEL-5, in the assay on TK-10, in the assay with UACC-257 and in the assay on DMS-114 was > 100 µM (inactive) in each case. The GI50 with SK-OV-3, with U-251, in the assay with NCI-H460, with SK-MEL-2, in the assay on A549 and with SW-620 was > 100 µM (inactive) in each case. Besides, the GI50 in the assay on COLO 205, in the assay on MOLT-4, in the assay on HCT-116 and in the assay on RPMI-8226 was > 100 µM (inactive) in each case.
Regarding `CC(C)C(=O)Nc1nc2[nH]cnc2c(=O)[nH]1`, the GI50 in the assay with NCI-H522, in the assay with NCI-H23, with SK-MEL-5, in the assay with TK-10, with UACC-257 and with DMS-114 was > 100 µM (inactive) each time. Also, the GI50 with SK-OV-3, in the assay on U-251, in the assay with NCI-H460, in the assay on SK-MEL-2, in the assay with A549 and with SW-620 was > 100 µM (inactive) each time. For the same molecule, the GI50 with COLO 205, in the assay on MOLT-4, in the assay with HCT-116 and with RPMI-8226 was > 100 µM (inactive) in each case.
As to `N=C1OC(c2cccc(Cl)c2)C(NNS(=O)(=O)c2ccccc2)=C1O` (centres undefined), the GI50 with NCI-H522 was 10.6 µM (inactive); with NCI-H23 it was 25.8 µM (inactive); in the assay on SK-MEL-5, 41.7 µM (inactive); in the assay with TK-10, 37.7 µM (inactive); in the assay with UACC-257 it was 33.3 µM (inactive); in the assay with T47D, 10 µM (inactive). Further, the GI50 with DMS-114 was 17.9 µM (inactive); with SK-OV-3, > 100 µM (inactive); in the assay with PC-3, 21.2 µM (inactive); in the assay with MDA-MB-435 it was 33 µM (inactive); with U-251 it was 33.3 µM (inactive); in the assay on NCI-H460, 44.1 µM (inactive). Further, the GI50 with SK-MEL-2 is 24.9 µM (inactive); in the assay with DU-145, > 100 µM (inactive); in the assay with A549, 80.9 µM (inactive); in the assay with SW-620 it was 12.8 µM (inactive); with COLO 205, 13.2 µM (inactive); in the assay with MOLT-4, 4.11 µM (inactive). The GI50 was 21.3 µM (inactive) with HCT-116 and 10.9 µM (inactive) in the assay on RPMI-8226.
On to `CC(C)(C)c1cc(-c2c3nc(c(-c4cc(C(C)(C)C)cc(C(C)(C)C)c4)c4ccc([nH]4)c(-c4cc(C(C)(C)C)cc(C(C)(C)C)c4)c4nc(c(-c5cc(C(C)(C)C)cc(C(C)(C)C)c5)c5ccc2[nH]5)C=C4)C=C3)cc(C(C)(C)C)c1`, for which the GI50 in the assay with NCI-H522, with NCI-H23, in the assay on SK-MEL-5, in the assay on TK-10, with UACC-257 and in the assay on DMS-114 was > 100 µM (inactive) each time. Also, the GI50 in the assay on SK-OV-3, in the assay with U-251, with NCI-H460, with SK-MEL-2, in the assay with A549 and in the assay on SW-620 was > 100 µM (inactive) each time. Besides, the GI50 in the assay with COLO 205, in the assay with MOLT-4, in the assay with HCT-116 and with RPMI-8226 was > 100 µM (inactive) throughout.
Consider `CN1CCC(=O)/C(=C/c2ccccc2)C1`, for which the GI50 is 8.95 µM (inactive) with NCI-H522; 17.5 µM (inactive) in the assay on NCI-H23; 17.9 µM (inactive) in the assay on SK-MEL-5; 16.1 µM (inactive) in the assay with TK-10; 14.7 µM (inactive) in the assay with UACC-257; 9.68 µM (inactive) in the assay with DMS-114. Moreover, the GI50 in the assay on SK-OV-3 is 20.2 µM (inactive); in the assay with U-251 it was 6.44 µM (inactive); in the assay on NCI-H460, 16.3 µM (inactive); in the assay with SK-MEL-2 it was 20.5 µM (inactive); in the assay on A549, 17.7 µM (inactive); with SW-620, 4.99 µM (inactive). Also, the GI50 in the assay on COLO 205 is 13.7 µM (inactive); with MOLT-4, 7.74 µM (inactive); in the assay with HCT-116, 1.78 µM (inactive); with RPMI-8226, 2.86 µM (inactive).
In the case of `COc1cc(C2c3cc4c(cc3[C@@H](Nc3ccc(N)cc3)C3COC(=O)[C@H]23)OCO4)cc(OC)c1O` (some centres undefined), the GI50 was 2.22 µM (inactive) in the assay on NCI-H522; 0.828 µM (active) with NCI-H23; 0.918 µM (active) with SK-MEL-5; 3.64 µM (inactive) in the assay with TK-10; 7.19 µM (inactive) with UACC-257; 1.59 µM (inactive) in the assay on DMS-114. Besides, the GI50 is 1.51 µM (inactive) in the assay with SK-OV-3; 0.446 µM (active) with PC-3; 10.8 µM (inactive) in the assay with MDA-MB-435; 0.401 µM (active) with U-251; 0.0557 µM (active) in the assay with NCI-H460; 5.73 µM (inactive) in the assay on SK-MEL-2. Further, the GI50 in the assay on DU-145 was 0.121 µM (active); in the assay on A549 it was 0.137 µM (active); with SW-620, 2.14 µM (inactive); with COLO 205 it was 7.85 µM (inactive); with HCT-116 it was 2.7 µM (inactive); in the assay with RPMI-8226, 0.425 µM (active).
As to `CC(=O)OC1CC[C@@]2(C)C(CC[C@]3(C)C2CC=C2[C@@H]4CC(C)(C)CCC4(C)CCC23C)[C@@]1(C)C(=O)O` (some centres undefined), the GI50 in the assay on NCI-H522 is 5.77 µM (inactive); with NCI-H23 it was 11.4 µM (inactive); with SK-MEL-5, 16.9 µM (inactive); in the assay on TK-10, 22.3 µM (inactive); in the assay with UACC-257 it was 19.9 µM (inactive); in the assay on T47D, 15.4 µM (inactive). In addition, the GI50 was 16.4 µM (inactive) in the assay on DMS-114; 17.7 µM (inactive) in the assay with SK-OV-3; 6.61 µM (inactive) in the assay with PC-3; 15.2 µM (inactive) with MDA-MB-435; 10.3 µM (inactive) with U-251; 10.7 µM (inactive) in the assay on NCI-H460. For the same molecule, the GI50 in the assay on SK-MEL-2 is 15.7 µM (inactive); with DU-145, 16.6 µM (inactive); in the assay on A549, 7.41 µM (inactive); in the assay on SW-620, 13.5 µM (inactive); with COLO 205, 19.1 µM (inactive); with MOLT-4, 17.6 µM (inactive). Moreover, the GI50 with HCT-116 is 13.2 µM (inactive); in the assay with RPMI-8226, 10.8 µM (inactive).
